Columns and labels:
Format in all cases: in vivo, rat
[1] = tested on: ceramide; test: Trachea ceramide immunohistochemistry, MPS VI rats; details: 37 weeks of age
Description: Tracheas from 37-week-old normal, untreated MPS VI and treated MPS VI rats were fixed, embedded, sectioned, and prepared as described above. Sections were incubated overnight with primary mouse monoclonal anti-ceramide antibody (MID 15B4, Alexis Corporation) and visualization was accomplished using a fluorescent secondary antibody, donkey anti-goat IgG-Cy-3 (711-165-152, Jackson Laboratory). Slides were visualized and photographed with a confocal laser-scanning microscope (Carl Zeiss 510 Meta).

[2] = tested on: articular chondrocytes; test: Immunoblot of articular chondrocytes from treated MPS VI rats; details: western blot, vs untreated MPS VI
From the text: Tracheas, femora, and tibias were collected from the control and treated MPS VI rats, and placed in either phosphate buffered saline for the isolation of fibroblast-like synoviocytes (FLS) and articular chondrocytes, or fixed in neutral buffered 10% formalin (Sigma Chemical) for histology, microCT analysis, and immunohistochemistry (see infra). The fixed bones were decalcified in 8% formic acid (Sigma Chemical) for 5 days, paraffin embedded, and sectioned (5 μm) for subsequent staining Primary FLS and articular chondrocyte cultures were established as previously described (Simonaro et al., “Joint and Bone Disease in Mucopolysaccharidosis VI and VII: Identification of New Therapeutic Targets and Biomarkers Using Animal Models,” Pediatr. Res. 57:701-707 (2005); Simonaro et al., “Mechanism of Glycosaminoglycan-Mediated Bone & Joint Disease: Implications for the Mucopolysaccharidoses & Other Connective Tissue Diseases,” Amer. J. Path. 172:112-122 (2008), both of which are hereby incorporated by reference in their entirety), and expression of inflammatory and apoptosis markers were assessed by western blotting.
Articular chondrocytes from 37-week-old normal, untreated and treated MPS VI rats were collected using sequential enzyme digestion of cartilage, pelleted and lysed for immunoblot analysis as previously described (Simonaro et al., “Mechanism of Glycosaminoglycan-Mediated Bone & Joint Disease: Implications for the Mucopolysaccharidoses & Other Connective Tissue Diseases,” Amer. J. Path. 172:112-122 (2008), which is hereby incorporated by reference in its entirety). The membranes were incubated with rabbit polyclonal anti-collagen type IIA1 (sc-8784-R, Santa Cruz Biotechnology), rabbit polyclonal anti-collagen type X (AB58632, Abcam), rabbit polyclonal anti-ADAMTS5 (sc-28887, Santa Cruz Biotechnology), rabbit polyclonal anti-PARP (sc-7150, Santa Cruz Biotechnology), and rabbit polyclonal anti-GAPDH (sc-25778, Santa Cruz Biotechnology), as a loading control. The bound antibodies were recognized by secondary antibodies conjugated to HRP (NA934V), GE Healthcare). […]

[3] = tested on: TNF-α; test: TNF-α immunostaining of articular cartilage, MPS VI rats; details: MPS VI rats treated 8 months, vs untreated
Description: (§1) Femora from 37-week-old normal, untreated MPS VI and treated MPS VI rats were fixed, embedded, sectioned, and stained with toluidine blue and H & E. Immunohistochemical studies were performed as well. For immunohistochemistry, sections were fixed with 4% paraformaldehyde/PBS, permeabilized with 0.5% Triton-X-100, blocked, and incubated overnight at 4° C. with primary rabbit polyclonal anti-mouse collagen type IIA1 (rabbit polyclonal […], Santa Cruz Biotechnology) and TNF-α antibody (goat polyclonal sc-1348, Santa Cruz Biotechnology). After several rinses with PBS, visualization was accomplished using a fluorescent secondary antibody, donkey anti-goat IgG-Cy-3 (711-165-152, Jackson Laboratory). Nuclei were stained with 1 mg/ml bis-benzimide Hoechst dye (Sigma-Aldrich) for 10 min, rinsed, and sections were mounted with an anti-bleaching mounting media. Slides were visualized and photographed with a confocal laser-scanning microscope (Carl Zeiss 510 Meta).

[4] = tested on: MPS VI rats; test: Trachea measurements and gross morphology, MPS VI rats
Description: (§2) Limb and trachea measurements were taken at the end of the study (37 weeks of age). The length of each femur was measured from the microCT images using the Microview software. The greater trochanter was used as the proximal margin of the femur, whereas the extent of the distal condyles was considered the distal margin. Thus, the length of each femur was computed roughly along the vertical axis of the bone. For validation, the physical femora and tibia lengths, as well as the width of the tracheas, was measured with a digital caliper. The mean of the two treatment groups (ERT and combined ERT/CNTO1081) were compared using standard student t test analysis.

[5] = tested on: MPS VI rats; test: Femora and tibia length by microCT / caliper, MPS VI rats; details: 37 weeks of age, vs untreated MPS VI
Description: Three-dimensional images of the 37-week-old femora from age-matched normal, untreated and treated MPS VI rats were obtained using the eXplore Locus SP PreClinical Specimen microCT system (GE Healthcare; London, Ontario, Canada). Scans were performed at a voxel size of 14.4 μm. The scan protocol consisted of 3600 image acquisitions over a five hour scan (acquisition parameters: 80 kVp, 80 uA, 3 second exposure time [˜690], 0.010″ aluminum beam filter). A calibration phantom containing air, water, and hydroxyapatite (SB3: Gamex RMI, Middleton, Wis., USA) was included in all scans to adjust for the variability in X-ray attenuation inherent to independent scan sessions.
as §2

[6] = tested on: MPS VI rats; test: Synovium / knee joint histology, MPS VI rats; details: MPS VI rats treated 8 months, knee cross sections
Description: as §1
FIG. 1A summarizes the serum levels of TNF-α and RANKL at the end of the study. Both inflammatory markers were highly elevated in untreated MPS VI rats as compared to normal animals, and both treatment protocols led to significant reductions. […] The synovial membranes (*) were hyperplastic in untreated MPS VI rats, leading to the formation of synovial villi (SV). […]

recombinant human N-acetylgalactosamine-4-sulfatase [ERT]
ceramide staining in tracheal epithelial cells [1]: strong ceramide staining | ADAMTS5 expression in articular chondrocytes [2]: reduced | PARP (apoptosis marker) expression in articular chondrocytes [2]: only reduced by the combined treatment protocol | collagen X expression in articular chondrocytes [2]: increased | TNF-α immunostaining in the articular cartilage [3]: modestly reduced | tracheal abnormalities (thickened, collapsed tracheas), gross inspection ([4]; 37 weeks of age): not altered | trachea cross-sectional area ([4]; 37 weeks, untreated 2.9±0.6, normal 7.5±0.8): 3.6±0.5 mm^2 | increase in femora length [5]: No improvements were observed | increase in tibia length [5]: No improvement was observed | synovial inflammation and formation of villi [6]: did not reduce
